Assay results: patent US9586896B2, “Nitroxyl donors with improved therapeutic index” (Cardioxyl Pharmaceuticals, Inc., priority 2013, dated 2017)
Values after ≈ are worked out from the molar mass of the structure shown.

What was measured:
dogs = assay: 14-day continuous infusion tolerance study of CXL-1020 in dogs; format: in vivo
Procedure: During in vivo trials of the nitroxyl donor, CXL-1020 (N-hydroxy-2-methanesulfonylbenzene-1-sulfonamide), a 14-day study was conducted to evaluate tolerance in dogs treated with continuous infusions of CXL-1020 at dose rates of up to 90 μg/kg/min. […] To further investigate this undesirable side-effect, a follow-up 14-day study in dogs was initiated.

[1] = In vitro stability (half-life) in dog plasma; format: in vitro ADME; settings: male, dog plasma pH 7.4, anticoagulant, 37° C., read-out: T1/2 (minutes) Dog
Procedure: Compound (1), compound (2), and CXL-1020 were tested for their stability in plasma. The assay system comprised (i) PBS, or plasma from rat, dog or human (at least 3 donors, male, pooled) at pH 7.4, and (ii) for tests conducted in plasma, an anticoagulant (sodium heparin or sodium citrate). Each test compound (5 μM) was incubated in PBS or plasma at 37° C. on a THERMOMIXER® with shaking Three samples (n=3) were taken at each of seven sampling time points: 0, 10, 30, 60, 90, 180 and 360 minutes. The samples were immediately combined with 3 volumes (i.e., 3 times the volume of PBS or plasma) of acetonitrile containing 1% formic acid and an internal standard to terminate the reaction. AB SCIEX API 3000 LC-MS/MS analysis of the test compounds was performed without a standard curve. Half-lives (T1/2) of the test compounds were determined from graphs of the percent remaining values using the peak area response ratio.

[2] = Solubility in water in the absence of excipients; format: physicochemical; settings: for solubility thermodynamic: thermodynamic from solid, read-out: equilibrium solubility in water
Procedure: Additionally, a sample of the compound of formula (1) was prepared in water to determine the approximate solubility of the compound in the absence of excipients (e.g., CAPTISOL®). A concentration of approximately 300 mg/mL was achieved, not accounting for the volume contribution of the compound. The pH of the sample was determined to be 2.8, which was adjusted to the target of 4.0 using 0.1 N NaOH. Upon pH adjustment, precipitation of a small amount of solid was observed. […] A similar analysis was performed for the compound of formula (2). The compound of formula (2) has a solubility of approximately 10 mg/mL.

normal canines = assay: Hemodynamic efficacy (PV loop analysis) in normal canines; format: in vivo, beagle dogs; settings: i.v. infusion
Procedure: The cardiovascular effects of nitroxyl donors were examined by means of pressure-volume (PV) curve (loops) analysis in conscious, sling-restrained beagle dogs. Animals were allowed free access to drinking water and a commercial canine diet under standard laboratory conditions. Fluorescent lighting was provided via an automatic timer for approximately 12 hours per day. On occasion, the dark cycle was interrupted intermittently due to study-related activities. Temperature and humidity were monitored and recorded daily and maintained to the maximum extent possible between 64° F. and 84° F. and 30% to 70%, respectively. The dogs were acclimated for a period of at least 1 week prior to surgery. Following surgery and recovery the animals were acclimated to sling restraint for a period up to 4.5 hours. Animals were fasted overnight prior to surgery.
Once a stable (surgical) plane of anesthesia had been established, a left-thoracotomy was performed (under strict aseptic conditions) and each animal was chronically instrumented with sono-micrometry crystals providing left-ventricular (LV) dimensions/volume. Additionally, a fluid-filled catheter and a solid-state monometer were placed in the left ventricle for pressure monitoring. A fluid-filled catheter was placed in the right ventricle (RV) and the aorta (Ao) for pressure monitoring/test article administration. […] The catheters/wires were aseptically tunneled and externalized between the scapulae. Over the course of the study, fluid-filled catheters were regularly (at least once weekly) flushed with a locking-solution in order to prevent both clotting and bacterial growth (2-3 mL of Taurolidine-Citrate solution, TCS-04; Access Technologies).
The animals (normal or heart failure) were studied during treatment with both vehicle (control) and a nitroxyl donor (either CXL-1020, a compound of formula (1) or a compound of formula (2)). At each dosing period, conscious sling-restrained animals were continuously monitored for up to two to three hours. Following hemodynamic stabilization, infusion of the vehicle was started. […] Infusion of the vehicle was continued and after 30 min another (baseline) set of hemodynamic data was collected. Following collection of baseline hemodynamic data, infusion of the nitroxyl donor compound being tested was initiated and derived hemodynamic/functional parameters were obtained/performed at up to four (4) time points selected from the following: at 30, 60, 90, 120, and 180 minutes after the onset of vehicle/test compound infusion. For the placebo or time-control treatment group, each animal was administered an infusion of an appropriate placebo for up to 180 minutes. In all cases, the test compound was delivered at a constant intravenous infusion rate of 1 mL/kg/hr and was compared at a molar equivalent dose rate.
The resulting left-ventricular pressure and volume data were analyzed in order to generate relationships representing the contractile and energetic state of the myocardium. Systolic arterial pressure (SAP), diastolic arterial pressure (DAP), and mean arterial pressure (MAP) were collected. Left-ventricular mechanical and/or geometrical indices were obtained from the pressure (ESP, EDP, dP/dt max/min, time-constant of relaxation-tau [based on mono-exponential decay with non-zero asymptote]) and volume (end-systolic volume (ESV), end diastolic volume (EDV), stroke volume (SV)) signal. In addition, the following measurements were derived from left-ventricular pressure-volume data (PV loops) generated during brief periods of preload reduction: pressure volume area (PVA) and stroke work (SW), end-systolic (ESPVR) and end-diastolic (EDPVR) pressure volume relationships, and end systolic pressure and stroke volume relationship (arterial elastance (Ea)). Representative data obtained from studies in normal dogs and heart failure dogs is shown in Table 5 and Table 6, respectively. A SVR (systemic vascular resistance) decrease correlates with vasodilation.

[3] = dose rate 50 (μmol/kg/min [sic])

| SMILES | dose rate tolerated (dogs) [µg/kg/min] | half-life at 5 μM [1] [min] | solubility thermodynamic ([2]; water, no excipients) [mg/mL] | Tau (% Change from Baseline) (normal canines; dose rate 100 (μmol/kg/min [sic])) [%] | pH of the sample in water ([2]; approximately 300 mg/mL in water before pH adjustment) | solubility ([2]; water without excipients, pH 2.8, thermodynamic from solid, water, no excipients, not accounting for the volume contribution of the compound, read-out: concentration achieved in water) [mg/mL] | observed solution concentration by HPLC ([2]; water, after pH adjustment to 4.0 with 0.1 N NaOH) [mg/mL] | EDV (% Change from Baseline) (normal canines; [3]) [%] | ESP (% Change from Baseline) (normal canines; [3]) [%] | ESPVR (% Change from Baseline) (normal canines; [3]) [%] | HR (% Change from Baseline) (normal canines; [3]) [%] | PRSW (% Change from Baseline) (normal canines; [3]) [%] | SW (% Change from Baseline) (normal canines; [3]) [%] | Tau (% Change from Baseline) (normal canines; [3]) [%] |
| --- | --- | --- | --- | --- | --- | --- | --- | --- | --- | --- | --- | --- | --- | --- |
| CS(=O)(=O)c1ccccc1S(=O)(=O)NO [CXL-1020, N-hydroxy-2-methanesulfonylbenzene-1-sulfonamide] | 60 | – | – | – | – | – | – | – | – | – | – | – | – | – |
| CS(=O)(=O)c1cccc(S(=O)(=O)NO)c1 [(2), N-Hydroxy-3-methanesulfonylbenzene-1-sulfonamide] | – | 33 | ~10 (≈ 39.8 mM) | −6.40 ± 7.11 | – | – | – | – | – | – | – | – | – | – |
| Cc1ccc(S(=O)(=O)NO)o1 [Compound (1), N-Hydroxy-5-methylfuran-2-sulfonamide] | – | 25 | > 100 | – | 2.8 | ≥ 300 | 268 | −6 ± 2 | −18 ± 2 | 19 ± 1 | −4 ± 2 | 12 ± 1 | −11 ± 4 | −6 ± 1 |
